The text below walks through data of patent publication US8598314B2 (priority 2007, dated 2013).

One series relates to NIH/Swiss mice. Description: Oral glucose tolerance test (OGTT), glucose lowering. The note with it: IP injection, 2 hour fasted NIH/Swiss mice, FIGS. 5 and 6. Type of series: in vivo. The procedure:
. Test compounds were injected IP (t=0 min) immediately following baseline measurements of 2 hour fasted NIH/Swiss mice. Blood samples were taken at 60, 120, and 180 minutes after injection. In some assays, samples were also taken at 240 minutes after the injection. Blood glucose was measured with a One-Touch® Ultra® glucose meter (LifeScan, Inc., Milpitas, Calif.). […].
The tests were performed as described in Example 5.

A short description of a further series: in vitro. The note with it: human, kidney or brush border membranes, pH 7.4.
Another series addresses T1, ACE from rabbit lung (Oryctolagus cuniculus, UniProt P12822).
T1 construct: ACE from rabbit lung; purchased Sigma Chemical Co; host or cells: rabbit lung tissue
T1 sequence (P12822 34-1310): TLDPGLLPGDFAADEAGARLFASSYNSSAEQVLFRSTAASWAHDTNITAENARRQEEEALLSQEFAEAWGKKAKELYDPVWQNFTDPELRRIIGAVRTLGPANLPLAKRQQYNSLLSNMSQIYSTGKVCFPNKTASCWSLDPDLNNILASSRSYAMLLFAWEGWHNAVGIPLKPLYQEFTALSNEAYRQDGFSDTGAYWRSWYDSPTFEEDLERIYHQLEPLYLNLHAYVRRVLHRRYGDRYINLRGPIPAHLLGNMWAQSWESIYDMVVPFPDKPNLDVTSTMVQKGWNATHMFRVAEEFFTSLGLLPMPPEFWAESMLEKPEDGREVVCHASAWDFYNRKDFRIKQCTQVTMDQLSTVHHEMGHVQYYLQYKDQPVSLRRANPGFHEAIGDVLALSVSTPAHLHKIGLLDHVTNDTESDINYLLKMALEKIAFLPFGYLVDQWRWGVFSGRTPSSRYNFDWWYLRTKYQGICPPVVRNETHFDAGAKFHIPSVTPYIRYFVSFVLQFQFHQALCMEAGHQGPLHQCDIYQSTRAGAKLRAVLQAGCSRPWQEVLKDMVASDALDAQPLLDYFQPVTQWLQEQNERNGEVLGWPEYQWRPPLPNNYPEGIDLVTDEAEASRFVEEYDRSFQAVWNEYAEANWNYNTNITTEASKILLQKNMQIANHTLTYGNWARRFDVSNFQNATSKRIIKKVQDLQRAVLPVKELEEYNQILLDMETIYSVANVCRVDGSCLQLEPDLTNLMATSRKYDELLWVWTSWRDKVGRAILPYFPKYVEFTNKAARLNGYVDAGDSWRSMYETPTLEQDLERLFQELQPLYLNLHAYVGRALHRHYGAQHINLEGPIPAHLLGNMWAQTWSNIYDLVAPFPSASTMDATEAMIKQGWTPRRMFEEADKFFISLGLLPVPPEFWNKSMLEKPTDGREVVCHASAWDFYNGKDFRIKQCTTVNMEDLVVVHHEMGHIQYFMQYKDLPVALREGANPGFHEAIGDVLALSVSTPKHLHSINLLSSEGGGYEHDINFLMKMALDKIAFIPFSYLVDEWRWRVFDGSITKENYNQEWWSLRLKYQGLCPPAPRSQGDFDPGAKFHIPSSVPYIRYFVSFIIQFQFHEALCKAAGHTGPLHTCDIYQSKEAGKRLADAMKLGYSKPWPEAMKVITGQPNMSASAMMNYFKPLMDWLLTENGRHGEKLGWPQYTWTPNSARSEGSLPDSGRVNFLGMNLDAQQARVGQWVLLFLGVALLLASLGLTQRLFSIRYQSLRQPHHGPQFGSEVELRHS
Description: ACE inhibition assay. The series is classed as biochemical. The procedure:
Peptide-ACE peptidase inhibitor conjugate compounds were assessed in an ACE inhibition assay using purified ACE enzyme and chromogenic substrates. An ACE stock solution was prepared by dissolving 0.1 unit of enzyme (ACE from rabbit lung, Sigma Chemical Co., St. Louis, Mo.) in 0.640 mL of HEPES buffer (0.1 M, pH=8). A 2 mM stock solution of substrate (N-benzyloxycarbonyl-Phe-His-Leu-OH) dissolved in methanol. The ACE inhibitor compounds were dissolved in phosphate buffer (0.1 M, pH=8) at concentrations of 0.0, 1, 10, 20, 60 and 100 μM. For the inhibition assay, six 2 mL microcentrifuge tubes were prepared containing 1.45 mL of phosphate buffer pH=8, 0.05 mL of 10% NaCl and 0.015 mL of substrate solution. To each microcentrifuge tube was added 0.015 mL of one of the ACE inhibitor compound's stock solutions. The solutions were heated at 37° C. for about 5 minutes. The reaction was started by the addition of 5 μL of the ACE stock solution to each tube mixture (30 seconds in between). The reaction mixtures were incubated at 37° C. After 5 min, 10 min, 30 min and 60 min., aliquots of 100 μL were taken from each tube (each sample was taken in intervals of 30 seconds). Tubes containing the 100 μL sample were floated in a boiling water bath for 5 min. and then cooled. The reaction samples were then treated with 20 μL of 2M NaOH and 20 μL of 0.1% phthaldialdehyde solution. The tubes were shaken for 4 minutes and 10 μL of 6 M HCl were added. […] Initial rates were determined from linear portions of product release curves. Starting substrate concentration in all assays was 20 μM. Apparent binding constants (Kd^app or Ki^app) of inhibitors to ACE were determined by fitting inhibition curves (initial rate vs. inhibitor concentration) to equation:
[formula] where v0 is reaction rate in the absence of inhibitor and [I]-inhibitor concentration. Fits were done by least-squares method using KaleidaGraph 3.6 (Synergy Software, Reading Pa.).

Series [1] concerns Dahl salt-sensitive (DSS) male rats. Description: Congestive heart failure (CHF) in vivo assay. The note with it: 10 μg/kg/day subcutaneous infusion, high-salt diet.
Description: In this assay, Dahl salt-sensitive (DSS) male rats were weaned at 21 days of age, maintained on a low-salt (LS) diet (0.2% NaCl) for 2 weeks. Rats were anesthetized with ketamine/xylazine (50 mg/kg/10 mg/kg, IP) and telemetry transmitters (Data Sciences, Inc.) were inserted to the aortic artery when rats were at 5 weeks of age. After surgery, the rats were allowed 10 days to recuperate before their BP (systolic and diastolic pressures) was recorded.
HS control animals (n=10 rats) were administered vehicle (50% DMSO) and fed HS in the same manner. LS control animals (n=5 rats) were maintained on the LS diet.
Series [2] concerns the target T2, endogenously expressed GLP-1 receptor, thyroid c-cell carcinoma line 6-23 (Rattus norvegicus, UniProt P32301).
T2 construct: the endogenously expressed GLP-1 receptor; endogenous in cells; host or cells: thyroid c-cell carcinoma line 6-23
T2 sequence (P32301 22-463): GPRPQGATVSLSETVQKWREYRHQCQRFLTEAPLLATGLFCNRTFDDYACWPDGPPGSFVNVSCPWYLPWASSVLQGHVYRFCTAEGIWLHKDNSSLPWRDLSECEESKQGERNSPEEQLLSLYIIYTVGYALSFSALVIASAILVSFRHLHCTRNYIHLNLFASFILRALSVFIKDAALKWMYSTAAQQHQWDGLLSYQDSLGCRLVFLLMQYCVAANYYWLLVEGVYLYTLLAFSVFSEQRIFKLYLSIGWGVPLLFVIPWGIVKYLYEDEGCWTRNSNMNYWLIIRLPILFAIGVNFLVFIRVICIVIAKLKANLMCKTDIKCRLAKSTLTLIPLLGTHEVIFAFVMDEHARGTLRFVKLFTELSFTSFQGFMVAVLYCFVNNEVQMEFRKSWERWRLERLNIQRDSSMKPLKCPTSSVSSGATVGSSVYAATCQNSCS
Description: GLP-1 cyclase whole cell cAMP assay. The series is classed as cell-based. The procedure: Cells from the thyroid c-cell carcinoma line 6-23 were grown to confluence and harvested by treatment with Versene ([…]). […] Accumulation of cAMP was measured following 30′ conjugate or control agent treatment using an HTRF® cell-based cAMP assay kit (Cisbio-US, Inc., Bedford, Mass.) in 384-well format. The compounds were tested at final concentrations from 1 μM to 10 pM. The cell-conjugate mixture was incubated for 30′ at room temperature, at which time the reaction was terminated by the addition of kit-provided α-cAMP Cryptate solution. Plates were then sealed and stored at room temperature overnight to allow components to come to full equilibrium. cAMP content was then measured by time resolved fluorescence.

A further series relates to recombinant DPP-IV. Description: recombinant DPP-IV in assay buffer (25 mM Tris-HCl, 140 mM NaCl, 10 mM KCl, pH 7.4). The note with it: room temperature, up to 15 hours.

Like-named read-outs stand apart in the source and are kept apart here.

Description for in vitro: The tubes were incubated in VorTemp 56™ (Eurotech Labs, UK) at 37° C. vortexed at 500 RPM. At time points of 0, 1, 2, 3, 4, and 5 hours, 200 μl STOP solution (50% ACN, 1% formic acid) was added to a given tube, and the samples were allowed to incubate until the end of the experiment. The samples were collected after 5 hours, centrifuged, and 200 μl of the supernatants were transferred into mass spectrometry vials. The intensities of the mother ions in each vial were analyzed with API 150EX™ mass spectrometer (Applied Biosystems, Foster City, Calif.) and quantified using the ANALYST™ program.
The hKBBM assay was also performed in the presence of valinepyrrolidide, a DPP-IV inhibitor.

In the case of `CC[C@H](C)[C@H](NC(=O)[C@H](Cc1ccccc1)NC(=O)[C@H](CCC(=O)O)NC(=O)[C@H](CCCCN)NC(=O)[C@H](C)NC(=O)[C@H](C)NC(=O)[C@H](CCC(N)=O)NC(=O)CNC(=O)[C@H](CCC(=O)O)NC(=O)[C@H](CC(C)C)NC(=O)[C@H](Cc1ccc(O)cc1)NC(=O)[C@H](CO)NC(=O)[C@H](CO)NC(=O)[C@@H](NC(=O)[C@H](CC(=O)O)NC(=O)[C@H](CO)NC(=O)[C@@H](NC(=O)[C@H](Cc1ccccc1)NC(=O)[C@@H](NC(=O)CNC(=O)[C@H](CCC(=O)O)NC(=O)[C@H](C)NC(=O)[C@H](Cc1c[nH]cn1)NC(=O)COCCOCCNC(=O)[C@@H]1CCCN1C(=O)[C@H](C)NC(CCc1ccccc1)C(=O)O)[C@@H](C)O)[C@@H](C)O)C(C)C)C(=O)N[C@@H](C)C(=O)N[C@@H](Cc1c[nH]c2ccccc12)C(=O)N[C@@H](CC(C)C)C(=O)N[C@H](C(=O)N[C@@H](CCCCN)C(=O)NCC(=O)N[C@@H](CCCNC(=N)N)C(N)=O)C(C)C` (stereo partly drawn) [Compound 4983, (R,S)-1-[N^2-(1-carboxy-3-phenylpropyl)-L-ala]-L-pro-8-amino-3,6-dioxaoctanoyl-GLP-1-(7-36) amide], in the series with NIH/Swiss mice, the “glucose lowering in OGTT (in words)” value is on record as “enhance glucose-lowering action compared to GLP-1”. The fraction remaining (usually what is left of the initial amount, in per cent) at 4 h in “in vitro” was over 80%.

As for `CC[C@H](C)[C@H](NC(=O)[C@H](Cc1ccccc1)NC(=O)[C@H](CC(C)C)NC(=O)[C@H](CCCNC(=N)N)NC(=O)[C@@H](NC(=O)[C@H](C)NC(=O)[C@H](CCC(=O)O)NC(=O)[C@H](CCC(=O)O)NC(=O)[C@H](CCC(=O)O)NC(=O)[C@H](CC(C)C)NC(=O)[C@H](CCC(N)=O)NC(=O)[C@H](CCCCN)NC(=O)[C@H](CO)NC(=O)[C@H](CC(C)C)NC(=O)[C@H](CC(=O)O)NC(=O)[C@H](CO)NC(=O)[C@@H](NC(=O)[C@H](Cc1ccccc1)NC(=O)[C@@H](NC(=O)CNC(=O)[C@H](CCC(=O)O)NC(=O)CNC(=O)[C@@H](N)Cc1c[nH]cn1)[C@@H](C)O)[C@@H](C)O)C(C)C)C(=O)N[C@@H](CCC(=O)O)C(=O)N[C@@H](Cc1c[nH]c2ccccc12)C(=O)N[C@@H](CC(C)C)C(=O)N[C@@H](CCCCN)C(=O)N[C@@H](CCC(N)=O)C(=O)NCC(=O)NCC(=O)N1CCC[C@H]1C(=O)N[C@@H](CO)C(=O)N[C@@H](CCCCN)C(=O)N[C@@H](CCC(=O)O)C(=O)N[C@H](C(=O)N[C@H](C(=O)N[C@@H](CO)C(=O)NCCOCCOCCOCC(=O)NCCOCCOCC(=O)NCCCC[C@H](NC(CCc1ccccc1)C(=O)O)C(=O)N1CCC[C@H]1C(=O)O)[C@@H](C)CC)[C@@H](C)CC` (stereo partly shown) [Compound 5715], the IC50 (as a rule, the point on the concentration scale where inhibition reaches its midpoint) at ACE from rabbit lung stood at 260 nM. For the same compound, in series [1], the “mean diastolic blood pressure at week 5” value came out at 112 mmHg, the “mean heart rate at week 5” value is recorded as 381 and the “mean systolic blood pressure at week 5” value was found to be 161 mmHg.

As to `CC[C@H](C)[C@H](NC(=O)[C@H](Cc1ccccc1)NC(=O)[C@H](CC(C)C)NC(=O)[C@H](CCCNC(=N)N)NC(=O)[C@@H](NC(=O)[C@H](C)NC(=O)[C@H](CCC(=O)O)NC(=O)[C@H](CCC(=O)O)NC(=O)[C@H](CCC(=O)O)NC(=O)[C@H](CC(C)C)NC(=O)[C@H](CCC(N)=O)NC(=O)[C@H](CCCCN)NC(=O)[C@H](CO)NC(=O)[C@H](CC(C)C)NC(=O)[C@H](CC(=O)O)NC(=O)[C@H](CO)NC(=O)[C@@H](NC(=O)[C@H](Cc1ccccc1)NC(=O)[C@@H](NC(=O)CNC(=O)[C@H](CCC(=O)O)NC(=O)CNC(=O)[C@@H](N)Cc1c[nH]cn1)[C@@H](C)O)[C@@H](C)O)C(C)C)C(=O)N[C@@H](CCC(=O)O)C(=O)N[C@@H](Cc1c[nH]c2ccccc12)C(=O)N[C@@H](CC(C)C)C(=O)N[C@@H](CCCCN)C(=O)N[C@@H](CC(N)=O)C(=O)NCCCC(=O)NCCOCCOCC(=O)NCCCC(=O)NCCCC[C@H](NC(CCc1ccccc1)C(=O)O)C(=O)N1CCC[C@H]1C(=O)O` (stereo partly shown) [Compound 5605], the half-maximal inhibitory concentration (IC50) at ACE from rabbit lung (substrate N-benzyloxycarbonyl-Phe-His-Leu-OH 20 μM, read-out: ACE inhibition IC50) was determined as 300 nM. The EC50 (usually the concentration giving half of the maximal effect) in series [2] came to 1.24 nM.

With “GLP-1(7-37)-GG-(S)-2,6-diamino-1-(thiazolidin-2-cyano-3-yl)hexan-1-one amide”, in the series with recombinant DPP-IV, the not cleaved entry is listed as “expected product ions were not observed; DPP-IV resistant under the test conditions”.

Turning to “GLP-1(7-37)-GG-(S)-2,6-diamino-1-(thiazolidin-3-yl)hexan-1-one amide”, the not cleaved entry in the series on recombinant DPP-IV is “expected product ions were not observed; DPP-IV resistant under the test conditions”.
